This note sets out measurements from patent publication EP3970494A1 (priority 2020, dated 2022).

Test in all cases: microbe, parasite or virus in culture
Common to all, as to type: cell-based

One assay has as its system Fusarium culmorum. The note with it: 168 h.
The test system of another assay is Phytophthora infestans. The note with it: 168 h, read-out: Fungal growth at 31 ppm (%) PHYTIN.
Another assay relates to Septoria tritici. The conditions noted are these: Zymoseptoria tritici, 168 h.

For the molecule `CNC(=O)/C(=N/OC)c1cccc(C)c1CO/N=C(\C)c1cc(C(F)(F)F)ccn1` [Example 5, (2E)-2-methoxyimino-N-methyl-2-[3-methyl-2-[[(E)-1-[4-(trifluoromethyl)-2-pyridyl]-ethylideneamino]oxymethyl]phenyl]acetamide], the values for the activity at 31 ppm with Fusarium culmorum, in the assay on Phytophthora infestans and with Septoria tritici were 8%, 20% and 19%, respectively.
